Patent publication US20210402011A1, “A COMPOUND FOR THE DETECTION OF HNO IN BIOLOGICAL SYSTEMS” (COUNCIL. OF SCIENTIFIC AND INDUSTRIAL RESEARCH, priority 2016, published 2021)

Experiments:
RAW 264.7 cells [1] = assay: MTT assay, in vitro cytotoxicity on RAW 264.7 cells; type: cell-based
Experimental: The in vitro cytotoxicity of ER-HNO on RAW 264.7 cells were determined by conventional MTT (3-(4, 5-Dimethylthiazol-2-yl)-2, 5-diphenyltetrazolium bromide) assay. RAW 264.7 cells (5×103) were seeded in each well of a 96 well plate and cultured in a 37° C. incubator supplied with 5% CO2. Cells were maintained in DMEM medium, supplemented with 10% Foetal Bovine Serum and 100 Units of Penicillin Streptomycin antibiotics. After 24 hours the cells were treated with different concentrations of the ER-HNO in triplicates for 24 hours. After the treatment, cells were added with […] of MTT reagent. The plate was then incubated for 4 hours at 37° C. 100 μl of Isopropyl Alcohol was added to each well. Optical density was measured at 570 nm using Multiskan Go (Thermo Scientific) to find the concentration of the cell inhibition. IC50 value has been calculated to be 90 μM.
The formula used for the calculation of the MTT assay for evaluation of the cell viability was as follows:
Cell viability (%)=(Means of absorbance value of treated group/Means of absorbance value of untreated control)×100.

Hct116 cells [2] = assay: MTT assay towards live Hct116; type: cell-based
Experimental: (§1) An MTT assay confirmed the non-toxic nature of probe ER-HNO towards live Hct116. Therefore, ER-HNO is tested as an imaging reagent for the detection of HNO in Hct116 colon cancer. The cells are incubated with probe ER-HNO (1 μM) for 15 min at 37° C. in acetonitrile-PBS buffer (0.2:99.8, v/v) at pH 7.2 and no intracellular fluorescence is observed.

[3] = Fluorescence emission studies for HNO detection in aq. PBS buffer-CH3CN
Experimental: The spectroscopic properties of ER-HNO in aq. PBS buffer medium under physiological pH medium. No significant difference is observed in the electronic spectra of ER-HNO and ER-S. In order to check the response of ER-HNO probe (10 uM) with in presence of 20 mole equivalent of various ROS and RNS (HNO, HOCl, H2O2, —OH, TBHP, NO3^−, NO2^−, benzoyl peroxide, S^2− and ascorbate) emission spectra are recorded in aq. […] A turn ON emission response is observed for probe ER-HNO, only in presence of HNO with λEms^Max=580 nm (λExt=530 nm). Moreover, no significant changes are observed in presence of different anionic, cationic as well as biothiols under identical experimental condition. The effects of pH on emission spectrum of probe ER-HNO is also investigated. […] Therefore, to explore the bio analytical application, all the studies are carried out at physiological pH medium.
An enhancement in emission signal are observed at λMax=586 nm (Φ=0.105, for λExt=530 nm) with gradual increasing [HNO] (FIG. 1B). A good linearity is observed between emission intensity and concentration of HNO in the range of 2-15 uM, with a lower detection limit of 2 μM. […] PBS buffer medium.
Stock solution of probe ER-HNO (1×10^−4M) was prepared in HPLC grade acetonitrile. All the analytes stock solution (1×10^−2M) was prepared in aqueous HEPES buffer (10 mM) medium at pH 7.2. […]

SERCA2 = assay: Western blot monitoring of SERCA2; type: cell-based; settings: HCT116 cells, Angeli's salt 10 uM, ER-HNO 30 μM, 24 hrs
Experimental: HCT116 cells were cultured in DMEM medium containing 10% Fetal Bovine Serum (FBS) supplemented with 100 Units of Penicillin Streptomycin antibiotics. Cells were treated with Angeli's salt 10 uM, ER-HNO 30 μM or both for 24 hrs. Prior to the treatment processes, DMEM medium was treated with N-Ethylmalemide (NEM) 1 mM and this medium was used to culture the cells. Post 24 hrs cells harvested and whole cell lysate proteins extracted. 40 ug of the proteins were resolved in SDS PAGE gel and transferred into PVDF membrane using Western Blot methods. The blot was over-night blocked with 5% Bovine Serum Albumin (BSA) at 4° C. 1:4000 dilution of SERCA2 antibody was to probe the blot for 2 hrs at room-temperature (RT). After three washes with 1×TBST, 1:4000 dilution of anti-rabbit HRP conjugated antibody was used to probe the blot for 1 hr at RT. After three washes with IX TBST, the blot was developed using auto-radiography in X-ray film.

Hct116 cells [4] = assay: Flow cytometry, DCFDA staining; type: cell-based; settings: Angeli's salt 10 uM, 30 uM probe, 2 hrs
Experimental: For DCFDA staining, HCT116 cells were cultured in DMEM medium containing 5 mM glucose supplemented with 10% FBS and 100 Units of antibiotics. Prior to the treatment processes, DMEM medium with 1% FBS was treated with N-Ethylmalemide (NEM) 1 mM and this medium was used to culture the cells further. Cells were treated with Angeli's salt 10 uM, L 30 uM or both for 2 hrs. After treatment cells were harvested by trypsinization and washed with complete DMEM media by centrifugation. Pellet was suspended in 1 ml of PBS buffer. 10 μM DCFDA (Sigma) was added to cells followed by incubation at 37° C. 5% CO2 incubator for 45 mins. DCFDA stained cells were analyzed in BD FACS Canto II using FITC channel. For Annexin V staining cultured HCT116 cells were harvested after trypsinization and washed with 1×PBS buffer. 500 ul of Annexin V binding buffer was used to re-suspend the cells. 5 ul of Annexin-V FITC antibody added to the re-suspended cell and incubated in dark for 5 mins. Antibody stained cells were then analyzed using BD Calibur FACs in FITC channel. The flow cytometry experiment confirmed that probe ER-HNO is capable of reducing RNS & ROS level induced by HNO [FIG. 5 (b)].

Hct116 cells [5] = assay: CLSM imaging of HNO in Hct116 cells; type: cell-based; settings: Hct116, probe 1 μM 15 min, then HNO 20 μM
Experimental: as §1
For confocal studies, Hct116 cells (3×10^5) were seeded on cover slips placed in 6 well plates. After 24 hours, Hct116 cells were treated with ER-HNO (1 μM) for 30 minutes at 37° C. in a 5% CO2 air environment. Cells were then washed thrice with Phosphate Buffer (1×PBS) and fixed with 4% PFA for 20 minutes and washed again with IX PBS. Nail paint was used to seal the cover slips mounted on the glass slides for each well plates. Again Hct116 cells were pre-treated with ER-HNO (1 μM) for 15 minutes, then Hct116 cells were further expose to Angeli's salt (HNO donor), then cells were washed thrice with media and followed by incubation with ER-HNO (1 μM) for another 15 minutes under same conditions. Cells were again washed with 1×PBS buffer and fixed with 4% PFA for 20 minutes and washed again with 1×PBS. Confocal laser scanning microscopic (CLSM) images were acquired in Olympus Fluoview Microscope with λExt/λMon=530/573 nm.

RAW 264.7 cells [6] = assay: CLSM imaging of HNO in RAW 264.7 cells; type: cell-based; settings: RAW 264.7, probe 1.0 μM 15 min 37° C., then AS
Experimental: The toxicity of the probe molecule toward live RAW 264.7 macrophages cells and cytotoxicity assays confirmed the low toxicity of the probe. The results encouraged to explore the use of the probe as an imaging reagent for the intracellular detection of HNO in these macrophage cells. Cells in DMEM culture media are incubated with ER-HNO (1.0 μM) for 15 min at 37° C. and subsequently viewed under confocal laser scanning microscope (CLSM) using a 530 nm laser as an excitation source.
RAW 264.7 cells were seeded on cover slips placed in 6 well plates. After 24 hours cells washed with DMEM medium then cells were treated with ER-HNO (1 μM) for 25 minutes. Cells were then washed thrice with culture medium and further treated with Angeli's salt (HNO donor) of different concentration for 30 min. After that cells were washed again with Phosphate Buffer Saline (3×PBS). Then cells were fixed with 4% PFA for 10 min. Again cells were washed thrice and then cover slips mounted using mounting medium. Nail paints was used to seal the coverslips mounted on the glass slides. Images were acquired by using Olympus FluoView FV-1000 Confocal Microscope.
RAW 264.7 cells were seeded on Coverslips (22 mm×22 mm, 170±5 μm square Cover glasses) placed in 6-well plates in DMEM culture medium containing (10% FBS and 1% penicillin-streptomycin) for 24 h at 37° C. 5% CO2. […]

Artemia nauplii = assay: Fluorescence imaging of Artemia nauplii; type: in vivo; settings: probe 1 μM 30 minutes, then HNO
Experimental: Imaging of Artemia nauplii by luminescence was performed using a fluorescence microscope with a 20×, 0.4 NA microscope objective (Olympus), coupled to an intensified CCD camera. The Artemia nauplii were imaged in both bright-field and epifluorescence geometries. The latter was enabled by a fluorescence filter set. The illumination intensity was about 10 W/mm^2.

emission intensity of the probe within pH range 4-10 ([3]; pH 4-10): remains unaltered
Substance: (E)-4-(2-(5,5-difluoro-1,7,9-trimethyl-10-phenyl-5H-5l4,6l4-dipyrrolo[1,2-c:2′,1′-f][1,3,2]diazaborinin-3-yl)vinyl)phenyl 2-(diphenylphosphanyl)benzoate [ER-HNO]
IC50 (RAW 264.7 cells [1]; RAW 264.7 cells, 24 hours treatment, read-out: IC50 (MTT cell viability)): 90 µM
toxicity toward live RAW 264.7 macrophages cells (RAW 264.7 cells [1]; cytotoxicity assays): low toxicity
toxicity towards live Hct116 (MTT assay) (Hct116 cells [2]): non-toxic
change in emission intensity in presence of other ROS/RNS (selectivity) ([3]; probe 10 uM, 20 mole equivalent of HOCl, H2O2, OH, TBHP, NO3-, NO2-, benzoyl peroxide, S2-, ascorbate): no change in emission intensity
counteraction of the stabilized expression of SERCA2 (SERCA2): at least 50%
RNS induced by Angeli's Salt (DCFDA staining) (Hct116 cells [4]): reduced
intracellular fluorescence after HNO exposure (Hct116 cells [5]): strong intracellular fluorescence
intracellular fluorescence after exposure to AS (RAW 264.7 cells [6]): strong intracellular fluorescence
fluorescence in Artemia nauplii on exposure to HNO (Artemia nauplii): strong fluorescence
